Reference: patent publication US6248718A, “Lesion-directed dry dosage forms of antibacterial agents for the treatment of acute mucosal infections of the oral cavity” (priority 1999, dated 2001)
“And” between values parts separate entries of the source, which are not always exact repeats. Equal entries are not always repeated.

How the values were obtained:
[1] = Local concentrations of penicillin in saliva after topical medication of various doses (Example VII); format: in vivo, human; conditions: for Penicillin concentration in saliva / concentration at 0.1 h / concentration at 20 min / concentration at 40 min / concentration at 1 h / concentration at 2 h: studies 1-3; for concentration at 0.1 h / concentration at 20 min / concentration at 40 min / concentration at 1 h / concentration at 2 h: human, in vivo, topical or ocular; for concentration at 2 h: 120 min, after water at 60 min
Method: Five healthy adult volunteers, three men and two women, were selected for this study. The same volunteers were used as the subjects for three studies, and the results are summarized as follows.
On the day of study, two hours after breakfast, the volunteers were given a dose of 100 mg, 50 mg, 20 mg, 10 mg and 2 mg of USP grade penicillin G potassium powder respectively. The drug powder was placed in the right oral sulcus between the lower gum and the buccal mucosa to be dissolved in a minimum amount of saliva. This loculated pocket of saliva was not to be swallowed and was not to be further diluted by saliva from other parts of the mouth for one hour. At 6 minutes, 20 minutes, 40 minutes and 60 minutes after drug application, an aliquot of 0.01 ml was taken from this pocket of saliva and added into a test tube containing 10 ml of nutrient broth to give a 1,000 times dilution. After being mixed well, aliquots of the mixtures of saliva sample and nutrient broth were forced to pass through bacterial filters into sterile test tubes. Then 0.8 ml of each 1:1,000 diluted filtrate was pipetted and added to 3.2 ml of nutrient broth to make an additional 5 times dilution in a total volume of 4 ml. Two ml was pipetted from the latter to make a serial double dilution of saliva sample in 2 ml of nutrient broth, as described above under a, in 12 test tubes. The dilution factor for the saliva sample in test No. 1 was 1:5,000 and increased progressively to 1:10,240,000 in test tube No. 12.
After the 60-minute sample was taken, the subjects were given an 8 oz. glass of water to drink or to rinse his or her mouth, but refrained from drinking and eating for another hour. At the end of this last hour, i.e. about 2 hours after the drug application, another saliva sample of 0.2 ml was withdrawn and added to 3.8 ml of nutrient broth to make a 1:20 dilution and the mixture was forced to pass a bacterial filter into a sterile test tube. Two (2 ) ml of the filtrate was pipetted from this 1:20 diluted mixture for antibiotic activity assays.
Each filtered mixture in test tube was inoculated with 0.1 ml of a 1:1,000 dilution of a 12 hour broth culture of Staphylococcus aureus ATCC 29213.
A row of 6 test tubes each containing 2 ml of nutrient broth with decreasing concentrations of penicillin G potassium from 6.2 to 0.16 mcg/ml, using a serial double dilution method described in a., was prepared and similarly inoculated with 0.1 ml broth culture of Staphylococcus aureus ATCC 29213 as the standard.
All test tubes were incubated at 37° C. for 18 hours and observed for bacterial growth against an inoculated broth containing neither antibiotic nor saliva samples.
The test tube of the highest number with the highest dilution factor of saliva in nutrient broth in which no bacterial growth was observed was interpreted as containing an equivalent of penicillin G potassium at 0.75 mcg/ml. Using the dilution factors, it was calculated that, after topical application of 2 to 100 mg of penicillin G potassium dry powder, the concentrations of penicillin G potassium in the saliva at the site of medication within the first hour and one hour after purging the mouth with water were as follows.

[2] = Local concentration of penicillin in saliva after a troche containing 50 mg penicillin G; format: in vivo, human; conditions: 50 mg troche, end of one hour; 60 min
Method: The local concentration of penicillin in the saliva was determined as follows. […] This loculated pocket of saliva was not swallowed and was not to be diluted with excess saliva from other parts of the mouth for one hour. Two samples were taken for assay to determine the peak and trough local concentrations of penicillin during the one-hour duration of medicinal treatment. At the time when the troche was completely dissolved and one hour later, aliquots of 10 microliters were pipetted from this pocket of saliva solution at the site of medication, representing the peak level and the trough level of antibiotic concentration, and transferred into 10 ml of distilled water to make a 1:1.000 dilution and into 1 ml of distilled water to make a 1:100 dilution, respectively. The diluted saliva antibiotic solutions were passed through a sterile bacteria-filter to remove any bacterial or fungal contaminants of the oral flora.
For determination of the peak concentration, 1 ml of the bacteria-free filtrate was further diluted with 9 ml of nutrient broth to achieve a 1:10,000 dilution of the saliva. Then a serial two-fold dilution was made of this 1:10,000 diluted saliva sample with an equal volume of nutrient broth in a roll of test tubes to obtain a series of 1 ml aliquots of nutrient broth in which the saliva was diluted to 20,000, 40,000, 80,000, 160,000, 320,000, 640,000, 1,280,000 and 2,560,000 folds respectively. […] Thus the final dilutions of the saliva sample were in the range of 40,000 to 5,120,000 folds.
For determining the trough concentration, the entire 1 ml of the 1:100 diluted saliva filtrate was used to make the serial dilutions so that the final dilutions of saliva sample were in the range of 4,000 to 256,000 folds in the final test culture.
As control standards, a series of test tubes containing 1 ml of nutrient broth with varying concentrations of penicillin G potassium salt ranging from 0.1 units to 10 units/ml were similarly mixed with an equal volume of nutrient broth freshly inoculated with the standard tubes of Staphylococcus aureus. Both the test and control standard tubes were incubated at 37° C. for 18 hours. Among the test tubes showing no gross evidence of bacterial growth, the one containing the highest dilution of saliva and the one containing the least amount of penicillin G were considered as having the identical concentration of penicillin, i.e. the MIC of the staphylococcus aureus.

SMILES: CC1(C)S[C@@H]2[C@H](NC(=O)Cc3ccccc3)C(=O)N2[C@H]1C(=O)O [penicillin G potassium]
- Penicillin concentration in saliva ([1]; 2 mg topical powder, 20 min): below 3.75 mg/ml
- Penicillin concentration in saliva ([1]; 2 mg topical powder, 20 min, listed as Penicillin G Potassium): < 3.75 mg/mL
- Penicillin concentration in saliva ([1]; 2 mg topical powder, 40 min): < 3.75 mg/mL
- Penicillin concentration in saliva ([1]; 2 mg topical powder, 60 min): < 3.75 mg/mL
- Penicillin concentration in saliva ([1]; 10 mg topical powder, 6 min): 60 mg/mL
- Penicillin concentration in saliva ([1]; 10 mg topical powder, 60 min): 3.75 mg/mL and 7.5 mg/mL
- Penicillin concentration in saliva ([1]; 20 mg topical powder, 6 min): 240 mg/mL and 120 mg/mL
- Penicillin concentration in saliva ([1]; 20 mg topical powder, 20 min): 60 mg/mL
- Penicillin concentration in saliva ([1]; 20 mg topical powder, 60 min): 7.5 mg/mL
- Penicillin concentration in saliva ([1]; 50 mg topical powder, 6 min): 240 mg/mL and 480 mg/mL
- Penicillin concentration in saliva ([1]; 50 mg topical powder, 20 min): 120 mg/mL and 240 mg/mL
- Penicillin concentration in saliva ([1]; 50 mg topical powder, 60 min): 7.5 mg/mL
- Penicillin concentration in saliva ([1]; 100 mg topical powder, 6 min): 480 mg/mL
- Penicillin concentration in saliva ([1]; 100 mg topical powder, 20 min): 240 mg/mL and 120 mg/mL
- Penicillin concentration in saliva ([1]; 100 mg topical powder, 40 min): 60 mg/mL
- Penicillin concentration in saliva ([1]; 100 mg topical powder, 60 min): 30 mg/mL and 15 mg/mL
- initial peak concentrations at the site of medication ([1]; doses of 2 mg to 100 mg powder): 7.5 to 960 mg/mL
- dose required to maintain minimum 3.75 mg/ml in saliva for one hour ([1]; dry powder): at least 10 mg
- concentration at 0.1 h ([1]; 2 mg topical powder, 6 min): 15000 µg/mL
- concentration at 20 min ([1]; 2 mg topical powder, 20 min): 7500 µg/mL
- concentration at 40 min ([1]; 2 mg topical powder, 40 min): 3750 µg/mL
- concentration at 1 h ([1]; 2 mg topical powder, 60 min): < 3750 µg/mL
- concentration at 2 h ([1]; 2 mg topical powder): < 15 µg/mL
- concentration at 0.1 h ([1]; 10 mg topical powder, 6 min): 60000 µg/mL
- concentration at 20 min ([1]; 10 mg topical powder, 20 min): 30000 µg/mL
- concentration at 40 min ([1]; 10 mg topical powder, 40 min): 15000 µg/mL
- concentration at 1 h ([1]; 10 mg topical powder, 60 min): 3750 µg/mL
- concentration at 2 h ([1]; 10 mg topical powder): < 15 µg/mL
- concentration at 0.1 h ([1]; 20 mg topical powder, 6 min): 120000 µg/mL
- concentration at 20 min ([1]; 20 mg topical powder, 20 min): 60000 µg/mL
- concentration at 40 min ([1]; 20 mg topical powder, 40 min): 7500 µg/mL
- concentration at 1 h ([1]; 20 mg topical powder, 60 min): 7500 µg/mL
- concentration at 2 h ([1]; 20 mg topical powder): < 15 µg/mL
- concentration at 0.1 h ([1]; 50 mg topical powder, 6 min): 480000 µg/mL
- concentration at 20 min ([1]; 50 mg topical powder, 20 min): 240000 µg/mL
- concentration at 40 min ([1]; 50 mg topical powder, 40 min): 30000 µg/mL
- concentration at 1 h ([1]; 50 mg topical powder, 60 min): 7500 µg/mL
- concentration at 2 h ([1]; 50 mg topical powder): < 15 µg/mL
- concentration at 0.1 h ([1]; 100 mg topical powder, 6 min): 960000 µg/mL
- concentration at 20 min ([1]; 100 mg topical powder, 20 min): 240000 µg/mL
- concentration at 40 min ([1]; 100 mg topical powder, 40 min): 30000 µg/mL
- concentration at 1 h ([1]; 100 mg topical powder, 60 min): 15000 µg/mL
- concentration at 2 h ([1]; 100 mg topical powder): < 15 µg/mL
- concentration in saliva after drinking ([1]; one hour after 8 oz. of fluid, all doses): < 15 µg/mL
- local trough concentration in saliva [2]: 7.5 to 15 mg/mL
